pIC50: −log10 of the molar value.
Columns and labels:
Mushroom tyrosinase [1] = molecular target: T1, Mushroom tyrosinase (Agaricus bisporus, UniProt O42713+Q00024+C7FF04+C7FF05); assay: Inhibition of mushroom tyrosinase using L-DOPA as substrate preincubated for 10 mins followed by substrate addition by absorbance based analysis
Mushroom tyrosinase [2] = molecular target: T1, Mushroom tyrosinase; assay: Binding affinity to mushroom tyrosinase assessed as inhibition constant using L-DOPA as substrate preincubated for 10 mins followed by substrate addition by absorbance based analysis
[3] = Cytotoxicity against mouse B16-F10 cells assessed as inhibition of cell growth measured after 48 hrs by MTT assay; type: toxicity, cell-based
Mushroom tyrosinase [4] = molecular target: T1, Mushroom tyrosinase; assay: Inhibition of mushroom tyrosinase using L-DOPA as substrate preincubated for 10 mins followed by substrate addition and measured after 20 mins by absorbance based analysis
Mushroom tyrosinase [5] = molecular target: T1, Mushroom tyrosinase; assay: Inhibition of mushroom tyrosinase
[6] = Cytotoxicity against mouse B16-F10 cells assessed as inhibition of cell growth upto 20 uM measured after 24 hrs by absorbance based assay relative to control; type: toxicity
[7] = molecular target: Mushroom tyrosinase (Agaricus bisporus) (UniProt O42713+Q00024+C7FF04+C7FF05); assay: Inhibition of mushroom tyrosinase transfected in mouse B16-F10 cells at 25 uM using L-tyrosine as substrate relative to control; type: cell-based
Tyrosinase [8] = molecular target: T2, Tyrosinase (Homo sapiens, UniProt P14679); assay: Inhibition of human tyrosinase using L-DOPA as substrate incubated for 10 to 20 mins by MBTH dye based assay
T2 sequence (P14679 whole entry): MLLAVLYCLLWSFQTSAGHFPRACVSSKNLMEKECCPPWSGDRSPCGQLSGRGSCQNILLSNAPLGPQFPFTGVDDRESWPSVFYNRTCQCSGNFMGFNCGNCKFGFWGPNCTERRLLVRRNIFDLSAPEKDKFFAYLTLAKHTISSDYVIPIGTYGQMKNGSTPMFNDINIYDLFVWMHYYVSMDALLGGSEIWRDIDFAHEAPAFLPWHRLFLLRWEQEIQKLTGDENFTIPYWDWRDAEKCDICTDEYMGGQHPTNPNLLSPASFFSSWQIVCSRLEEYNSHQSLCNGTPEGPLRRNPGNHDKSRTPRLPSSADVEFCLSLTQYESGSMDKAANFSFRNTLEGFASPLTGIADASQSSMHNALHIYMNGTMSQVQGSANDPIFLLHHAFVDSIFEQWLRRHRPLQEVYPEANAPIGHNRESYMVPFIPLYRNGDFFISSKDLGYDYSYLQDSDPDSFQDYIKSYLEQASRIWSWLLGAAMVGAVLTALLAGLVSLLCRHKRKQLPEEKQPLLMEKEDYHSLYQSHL

Mushroom tyrosinase [9] = molecular target: T1, Mushroom tyrosinase; assay: Inhibition of mushroom tyrosinase using L-DOPA as substrate preincubated for 10 mins followed by substrate addition and measured after 20 mins
Tyrosinase [10] = molecular target: T2, Tyrosinase; assay: Inhibition of human His-tagged tyrosinase CD expressed in HEK293 cells assessed as inhibition of melanin production using L-DOPA as substrate; type: cell-based
Mushroom tyrosinase [11] = molecular target: T1, Mushroom tyrosinase; assay: Inhibition of mushroom tyrosinase using L-DOPA as substrate preincubated for 20 mins followed by substrate addition by absorbance based analysis
Mushroom tyrosinase [12] = molecular target: T1, Mushroom tyrosinase; assay: Inhibition of mushroom tyrosinase using L-tyrosine as substrate preincubated for 20 mins followed by substrate addition by absorbance based analysis
Mushroom tyrosinase [13] = molecular target: T1, Mushroom tyrosinase; assay: Binding affinity to mushroom tyrosinase assessed as inhibition constant incubated for 10 mins by spectrophotometric analysis
Mushroom tyrosinase [14] = molecular target: T1, Mushroom tyrosinase; assay: Inhibition of mushroom tyrosinase incubated for 10 mins by spectrophotometric analysis
Mushroom tyrosinase [15] = molecular target: T1, Mushroom tyrosinase; assay: Binding affinity to mushroom tyrosinase assessed as inhibition constant using L-DOPA as substrate preincubated for 10 mins followed by substrate addition and measured after 20 mins

SMILES: Oc1ccc(/C=N/c2nnc(S)s2)c(O)c1
- IC50 (Mushroom tyrosinase [1]): 0.25 µM
- Ki (Mushroom tyrosinase [2]): 0.075 µM

SMILES: O=C1C=C(Cn2cc(COc3ccc4ccccc4c3)nn2)C(=O)C=C1O
- IC50 at 48 h [3]: 67.5 µM
- IC50 (Mushroom tyrosinase [4]): 0.3 µM

SMILES: CC(C)[C@H]1C(=O)N2CCC[C@H]2c2cn(nn2)[C@@H](Cc2ccc(O)cc2)C(=O)N2CCC[C@H]2c2cn1nn2
- IC50 (Mushroom tyrosinase [5]): 1.6 µM

SMILES: O=C1/C(=C/c2ccccc2O)OC(=S)N1c1ccccc1
- inhibition at 24 h, up to 20 µM [6]: ~65%
- IC50 (Mushroom tyrosinase [5]): 11.18 µM
- inhibition [7]: 65%

SMILES: O=C(NC1CCCCC1)c1csc(-c2ccc(O)cc2O)n1
- pIC50 (Tyrosinase [8]): 5.49

SMILES: CC(C)Nc1nc(-c2ccc(O)cc2O)cs1
- pIC50 (Tyrosinase [8]): 5.96

SMILES: COc1ccccc1-n1c(SCC(=O)Nc2ccccc2)nnc1-c1ccccc1F
- IC50 (Mushroom tyrosinase [9]): 0.54 µM

SMILES: CCCCn1c(SCC(=O)Nc2ccc(F)cc2)nnc1-c1ccccc1
- IC50 (Mushroom tyrosinase [9]): 0.37 µM

SMILES: CC(C)[C@@H]1NC(=O)[C@@H]2CCCN2C(=O)[C@H](Cc2ccc(O)cc2)n2cc(nn2)[C@@H]2CCCN2C1=O
- IC50 (Mushroom tyrosinase [5]): 0.5 µM

SMILES: CCCNc1nc(-c2ccc(O)cc2O)cs1
- pIC50 (Tyrosinase [8]): 5.21

SMILES: Oc1ccc(O)cc1 [HYDROQUINONE]
- pIC50 (Tyrosinase [10]): 4.82

SMILES: CCC(=O)Nc1nc(-c2ccc(O)cc2F)cs1
- pIC50 (Tyrosinase [8]): < 3.15

SMILES: NC(=S)N/N=C/c1ccc(OCc2cn(CC(=O)Nc3ccccc3)nn2)cc1
- IC50 (Mushroom tyrosinase [11]): 2.18 µM
- IC50 (Mushroom tyrosinase [12]): 0.79 µM

SMILES: COc1cccc(NC(=O)Cn2cc(COc3ccc(/C=N/NC(N)=S)cc3)nn2)c1
- IC50 (Mushroom tyrosinase [11]): 0.84 µM
- IC50 (Mushroom tyrosinase [12]): 0.22 µM

SMILES: CCCC(=O)Nc1cnc(-c2cc(CCC)c(O)cc2O)s1
- pIC50 (Tyrosinase [8]): < 3.00

SMILES: CCCCc1ccc(O)c(C)c1O
- pIC50 (Tyrosinase [8]): < 3.70

SMILES: Cc1c(Cl)cccc1NC(=O)Cn1cc(COc2ccc(/C=N/NC(N)=S)cc2)nn1
- IC50 (Mushroom tyrosinase [11]): 0.26 µM

SMILES: COc1ccccc1-n1c(SCC(=O)Nc2ccc(I)cc2)nnc1-c1ccccc1
- IC50 (Mushroom tyrosinase [9]): 0.65 µM

SMILES: CCCCCn1nc(-c2ccccc2)n(CC(=O)NNC(=O)Nc2ccccc2C(F)(F)F)c1=O
- Ki (Mushroom tyrosinase [13]): 0.012 µM
- IC50 (Mushroom tyrosinase [14]): 0.00166 µM

SMILES: OCCc1ccc(O)cc1O
- pIC50 (Tyrosinase [8]): < 3.70

SMILES: CCCCCn1nc(-c2ccccc2)n(CC(=O)NNC(=S)Nc2ccccc2C(F)(F)F)c1=O
- Ki (Mushroom tyrosinase [13]): 0.122 µM
- IC50 (Mushroom tyrosinase [14]): 5.62 µM

SMILES: NC(=S)N/N=C/c1ccc(OCc2cn(CC(=O)Nc3cccc(Cl)c3)nn2)cc1
- IC50 (Mushroom tyrosinase [11]): 0.5 µM

SMILES: CN(C(=O)C1CCCCC1)c1nc(-c2ccc(O)cc2O)cs1
- pIC50 (Tyrosinase [8]): < 3.00

SMILES: O=C1/C(=C/c2ccc(O)cc2O)OC(=S)N1c1ccccc1
- inhibition at 24 h, up to 20 µM [6]: ~55%
- IC50 (Mushroom tyrosinase [5]): 4.7 µM
- inhibition [7]: 55%

SMILES: O=C(Nc1cccc(-c2ccc(O)cc2O)c1)C1CCCCC1
- pIC50 (Tyrosinase [8]): < 3.15

SMILES: CC(C)(O)c1ccc(C(=O)Nc2nc(-c3ccc(O)cc3O)cs2)cc1
- pIC50 (Tyrosinase [8]): 5.49

SMILES: CCCCc1ccc(O)cc1O [RUCINOL]
- pIC50 (Tyrosinase [10]): 4.87

SMILES: C[C@@H](O)CCc1ccc(O)cc1
- pIC50 (Tyrosinase [10]): 2.92

SMILES: COc1ccccc1-n1c(SCC(=O)Nc2ccc(Br)cc2)nnc1-c1ccccc1
- Ki (Mushroom tyrosinase [15]): 0.007 µM
- IC50 (Mushroom tyrosinase [9]): 0.0048 µM

SMILES: Cc1c(NC(=O)Cn2cc(COc3ccc(/C=N/NC(N)=S)cc3)nn2)cccc1[N+](=O)[O-]
- IC50 (Mushroom tyrosinase [11]): 0.56 µM
- IC50 (Mushroom tyrosinase [12]): 0.25 µM

SMILES: COc1ccccc1-n1c(SCC(=O)Nc2ccc(F)cc2)nnc1-c1ccccc1F
- IC50 (Mushroom tyrosinase [9]): 0.17 µM

SMILES: CCCCCn1nc(-c2ccccc2)n(CC(=O)NNC(=S)Nc2ccc(F)cc2)c1=O
- IC50 (Mushroom tyrosinase [14]): 0.014 µM

SMILES: CCCCCn1nc(-c2ccccc2)n(CC(=O)NNC(=O)Nc2ccccc2Br)c1=O
- IC50 (Mushroom tyrosinase [14]): > 20 µM

SMILES: COc1ccccc1-n1c(SCC(=O)Nc2ccc(Br)cc2)nnc1-c1ccccc1F
- IC50 (Mushroom tyrosinase [9]): 0.15 µM

Source: ChEMBL document CHEMBL5331042, “Azole inhibitors of mushroom and human tyrosinases: Current advances and prospects of drug development for melanogenic dermatological disorders” (Eur J Med Chem, 2022)
